Calls of active or inactive are those of the source. The calls are words filed in the database; no cut-off is given here.
Assays:
Type in all cases: functional, cell-based
PANC-1 = assay: Induction of ROS generation in human PANC1 cells incubated for 1 hr by DCFH-DA dye based assay
A549 [1] = assay: (§1) Antiproliferative activity against human A549 cells assessed as inhibition of cell proliferation incubated for 72 hrs by conventional ATP quantification method; settings: A549, 72 h
[2] = Antiproliferative activity against human NAMALWA cells assessed as inhibition of cell proliferation incubated for 72 hrs by conventional ATP quantification method; settings: NAMALVA
HCT-116 = assay: Antiproliferative activity against human HCT116 cells assessed as inhibition of cell proliferation incubated for 72 hrs by conventional ATP quantification method; settings: HCT-116, 72 h
[3] = Antiproliferative activity against human WM266.4 cells assessed as inhibition of cell proliferation incubated for 72 hrs by conventional ATP quantification method; settings: WM 266-4, 72 h
A-375 = assay: Antiproliferative activity against human A375 cells assessed as inhibition of cell proliferation incubated for 72 hrs by conventional ATP quantification method; settings: A-375, 72 h
A549 [4] = assay: as §1; settings: A549, 72 h; remark: listed apart in the source
SK-OV-3 = assay: Antiproliferative activity against human SKOV3 cells assessed as inhibition of cell proliferation incubated for 72 hrs by conventional ATP quantification method; settings: SK-OV-3, 72 h
HT-29 = assay: Cytotoxicity against human HT-29 cells incubated for 72 hrs under hypoxic conditions by MTS assay
DU-145 = assay: Antiproliferative activity against human DU145 cells assessed as inhibition of cell proliferation incubated for 72 hrs by conventional ATP quantification method; settings: DU-145, 72 h
OVCAR-3 = assay: Antiproliferative activity against human OVCAR3 cells assessed as inhibition of cell proliferation incubated for 72 hrs by conventional ATP quantification method; settings: OVCAR-3, 72 h
TK-10 = assay: Antiproliferative activity against human TK10 cells assessed as inhibition of cell proliferation incubated for 72 hrs by conventional ATP quantification method; settings: TK-10, 72 h
MDA-MB-231 = assay: Cytotoxicity against human MDA-MB-231 cells incubated for 72 hrs under hypoxic conditions by MTS assay
T47D = assay: Antiproliferative activity against human T47D cells assessed as inhibition of cell proliferation incubated for 72 hrs by conventional ATP quantification method
HOP-62 = assay: Antiproliferative activity against human HOP62 cells assessed as inhibition of cell proliferation incubated for 72 hrs by conventional ATP quantification method; settings: HOP-62, 72 h
KM12 = assay: Antiproliferative activity against human KM12 cells assessed as inhibition of cell proliferation incubated for 72 hrs by conventional ATP quantification method; settings: KM12, 72 h
NCI-H460 = assay: Antiproliferative activity against human NCI-H460 cells assessed as inhibition of cell proliferation incubated for 72 hrs by conventional ATP quantification method; settings: NCI-H460, 72 h

Compound | IC50 (A549 [1]) [µM] | IC50 [2] [µM] | IC50 (HCT-116) [µM] | IC50 [3] [µM] | IC50 (A-375) [µM] | further results
BLEOMYCIN | – | – | – | – | – | Activity (PANC-1): Active
CC(C)[C@H]1CC[C@@](O)(CI)[C@H]2C(=O)OCC(C(=O)O)=C[C@H]12 | 5.43 | 3.26 | 2.14 | 10.1 | > 10 | –
CC(C)[C@H]1CC[C@@](O)(CCl)[C@H]2C(=O)OCC(C(=O)O)=C[C@H]12 [HEPTELIDIC ACID CHLOROHYDRIN] | 0.55 | 0.32 | 0.22 | 0.55 | 1.31 | –
C=C(C(=O)O)C1OC(=O)[C@H]2[C@H]1[C@@H](C(C)C)CC[C@@]2(O)CI (stereo not given in full) | > 10 | > 10 | > 10 | > 10 | > 10 | –
COc1cccc2c1C(=O)c1c(O)c3c(c(O)c1C2=O)C[C@@](O)(C(=O)CO)C[C@@H]3O[C@H]1C[C@H](N)[C@H](O)[C@H](C)O1 [DOXORUBICIN] | 0.03 | – | – | 0.15 | 0.01 | IC50 (A549 [4]): 0.02 µM; IC50 (SK-OV-3): 0.02 µM; Activity (HT-29): inactive; IC50 (DU-145): 0.02 µM; IC50 (OVCAR-3): 0.02 µM; IC50 (TK-10): 0.02 µM; Activity (MDA-MB-231): inactive; IC50 (T47D): 0.02 µM; IC50 (HOP-62): 0.02 µM; IC50 (KM12): 0.02 µM; IC50 (NCI-H460): 0.02 µM
CNC(=O)C1=C[C@@H]2[C@@H](C(C)C)CC[C@@](O)(CO)[C@H]2C(=O)OC1 | > 32 | > 32 | > 32 | > 32 | > 32 | –
CC(C)[C@H]1CC[C@@]2(CO2)[C@H]2C(=O)OCC(C(=O)OCc3ccc(-c4ccccc4)o3)=C[C@H]12 | 0.35 | 0.37 | 0.22 | 0.96 | 1.31 | –

Reference: ChEMBL document CHEMBL3585330, “Anticancer activity of koningic acid and semisynthetic derivatives” (Bioorg Med Chem, 2015)
